# Reference: US7973055B2, “Crystalline forms of a biphenyl compound” (Theravance, Inc., priority 2006, dated 2011)
# Target: T1, hM2 receptor (CHO-K1 cells) (Homo sapiens, UniProt P08172)
# T1 construct: expressed in transfected cells; host or cells: CHO-K1 cells
# T1 sequence (P08172 1-466): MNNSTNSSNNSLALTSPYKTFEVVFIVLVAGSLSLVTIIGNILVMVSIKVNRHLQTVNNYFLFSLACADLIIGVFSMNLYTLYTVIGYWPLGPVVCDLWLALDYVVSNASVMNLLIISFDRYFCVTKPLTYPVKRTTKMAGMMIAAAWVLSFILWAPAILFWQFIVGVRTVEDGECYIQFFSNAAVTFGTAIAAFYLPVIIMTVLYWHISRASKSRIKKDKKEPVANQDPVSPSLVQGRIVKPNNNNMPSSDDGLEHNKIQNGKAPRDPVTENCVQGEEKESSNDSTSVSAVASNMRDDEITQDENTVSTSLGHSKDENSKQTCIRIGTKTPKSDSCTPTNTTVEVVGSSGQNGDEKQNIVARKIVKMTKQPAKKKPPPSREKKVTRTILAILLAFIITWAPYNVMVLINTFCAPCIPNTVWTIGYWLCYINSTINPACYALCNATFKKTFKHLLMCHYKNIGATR
# Assay: Blockade of agonist-mediated inhibition of cAMP accumulation
# Assay type: cell-based
# Conditions: CHO-K1 cells expressing hM2; this or a similar assay; read-out: Ki for blockade of oxotremorine-inhibition of forskolin-mediated cAMP accumulation
# Protocol: In this assay, the functional potency of a test compound was determined by measuring the ability of the test compound to block oxotremorine-inhibition of forskolin-mediated cAMP accumulation in CHO-K1 cells expressing the hM2 receptor. cAMP assays were performed in a radioimmunoassay format using the Flashplate Adenylyl Cyclase Activation Assay System with ^125I-cAMP (NEN SMP004B, PerkinElmer Life Sciences Inc., Boston, Mass.), according to the manufacturer's instructions.
# Cells were rinsed once with dPBS and lifted with Trypsin-EDTA solution (0.05% trypsin/0.53 mM EDTA) as described in the Cell Culture and Membrane Preparation section above. […] The cell pellet was then re-suspended in 10 mL dPBS, and the cells were counted with a Coulter Z1 Dual Particle Counter (Beckman Coulter, Fullerton, Calif.). […]
# To measure oxotremorine inhibition of AC activity, 25 μL forskolin (25 μM final concentration diluted in dPBS), 25 μL diluted oxotremorine, and 50 μL cells were added to agonist assay wells. […] Plates were sealed, incubated overnight at room temperature and counted the next morning on a PerkinElmer TopCount liquid scintillation counter (PerkinElmer Inc., Wellesley, Mass.). The amount of cAMP produced (pmol/well) was calculated based on the counts observed for the samples and cAMP standards, as described in the manufacturer's user manual. […]
compound,measurement,value
"CN(CCN1CCC(OC(=O)Nc2ccccc2-c2ccccc2)CC1)C(=O)c1cccc(C(=O)NCCNCc2ccc(O)cc2)c1 [compound of formula I, biphenyl-2-ylcarbamic acid 1-[2-({3-[2-(4-hydroxybenzylamino)ethylcarbamoyl]benzoyl}methylamino)ethyl]piperidin-4-yl ester]",Ki,< 5 nM
